Laboratory results from publication PMC3967766 (Journal of medicinal chemistry, 2013).
Entries after “also recorded” stand apart in the source; their conditions may differ. Read-outs that look alike come from different tables or passages of the source.

Key:
CB2 receptor [1] = target: T1, CB2 receptor (Homo sapiens, UniProt P34972); experiment: cell-based LANCE cAMP assay in CHO cells stably expressing CB2
RAW 264.7 cells [2] = experiment: RANKL-induced osteoclast formation assay; conditions: 5 days; for inhibitory activity on RANKL-induced osteoclast formation: RAW 264.7, RANKL 15 ng/mL; for inhibition rate of osteoclast formation: RANKL 15 ng/mL
CB2 receptor [3] = target: T1, CB2 receptor; experiment: [3H]CP-55,940 radioligand competition binding assay, CB2
RAW 264.7 cells [4] = experiment: MTT cytotoxicity assay on osteoclast precursors; type: cell-based, mouse; conditions: for cell viability versus vehicle control: 1.25 and 2.5 µM; for cell viability: 5 and 10 µM
CB1 receptor = CB1 receptor (Homo sapiens, UniProt P21554); experiment: [3H]CP-55,940 radioligand competition binding assay, CB1; conditions: read-out: Ki (CB1); [3H]CP-55,940 competition, CB1 membrane protein
Sequence of CB1 receptor (P21554 whole entry): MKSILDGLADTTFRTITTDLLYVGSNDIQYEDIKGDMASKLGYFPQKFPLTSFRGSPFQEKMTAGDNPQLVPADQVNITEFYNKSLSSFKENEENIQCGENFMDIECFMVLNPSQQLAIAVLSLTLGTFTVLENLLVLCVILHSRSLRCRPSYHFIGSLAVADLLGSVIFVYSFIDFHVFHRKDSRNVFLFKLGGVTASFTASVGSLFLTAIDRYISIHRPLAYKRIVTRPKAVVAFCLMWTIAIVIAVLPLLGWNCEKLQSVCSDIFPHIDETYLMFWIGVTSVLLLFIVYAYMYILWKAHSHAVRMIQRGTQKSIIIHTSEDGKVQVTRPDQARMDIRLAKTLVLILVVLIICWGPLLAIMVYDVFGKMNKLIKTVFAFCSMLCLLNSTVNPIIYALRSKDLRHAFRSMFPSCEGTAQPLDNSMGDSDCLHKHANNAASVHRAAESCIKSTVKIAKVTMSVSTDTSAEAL

T1 sequence (P34972 whole entry): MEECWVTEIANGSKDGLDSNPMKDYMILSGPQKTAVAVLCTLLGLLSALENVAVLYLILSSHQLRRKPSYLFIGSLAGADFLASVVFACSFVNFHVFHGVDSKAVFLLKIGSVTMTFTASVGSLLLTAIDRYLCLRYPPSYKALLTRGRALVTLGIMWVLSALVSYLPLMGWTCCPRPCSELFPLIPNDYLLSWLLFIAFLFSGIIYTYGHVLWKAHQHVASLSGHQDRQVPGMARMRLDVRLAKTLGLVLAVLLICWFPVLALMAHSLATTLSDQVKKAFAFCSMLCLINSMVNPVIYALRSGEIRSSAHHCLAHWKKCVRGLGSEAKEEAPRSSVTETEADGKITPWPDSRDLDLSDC

CCCCCCC(C)(C)c1cc(OC)c([C@H]2C=C(CO)[C@H]3C[C@@H]2C3(C)C)c(OC)c1 (stereo in doubt) [HU308, reference compound]
CB2 functional activity (CB2 receptor [1]; LANCE cAMP assay): agonists

CCCCCCC(C)(C)c1ccc([C@@H]2C[C@H](O)CC[C@H]2CCCO)c(O)c1 [CP55940, reference compound]
CB2 functional activity (CB2 receptor [1]): agonists

Cc1ccc(Cn2nc(C(=O)NC3C4(C)CCC(C4)C3(C)C)cc2-c2ccc(Cl)c(C)c2)cc1 (stereo not drawn) [Compound 5, SR144528, reference compound]
CB2 functional activity (CB2 receptor [1]): inverse agonists

CCN(CC)c1ccc(CN([C@]23C[C@H]4C[C@H](C[C@H](C4)C2)C3)S(=O)(=O)c2ccc(F)cc2)cc1 [Compound 21, N-((3s,5s,7s)-Adamantan-1-yl)-N-(4-(diethylamino)benzyl)-4-fluorobenzenesulfonamide]
CB2 functional activity (CB2 receptor [1]; LANCE cAMP assay): inverse agonists

CCN(CC)c1ccc(CN([C@]23C[C@H]4C[C@H](C[C@H](C4)C2)C3)S(=O)(=O)c2cccc(C)c2)cc1 [Compound 25, N-((3s,5s,7s)-Adamantan-1-yl)-N-(4-(diethylamino)benzyl)-3-methylbenzenesulfonamide]
inhibitory activity on RANKL-induced osteoclast formation (RAW 264.7 cells [2]): inhibit RANKL-induced osteoclastogenesis in a dose-dependent manner; also recorded: potent inhibitory activity | Ki (CB2 receptor [3]): 25 nM

CCN(CC)c1ccc(CN(c2ccc(Cl)cc2)S(=O)(=O)c2ccc(OC)cc2)cc1 [Compound 48, N-(4-Chlorophenyl)-N-(4-(diethylamino)benzyl)-4-methoxybenzenesulfonamide]
inhibition rate of osteoclast formation (RAW 264.7 cells [2]; 1 µM): good inhibition activity | inhibitory activity on RANKL-induced osteoclast formation (RAW 264.7 cells [2]): inhibit RANKL-induced osteoclastogenesis in a dose-dependent manner; also recorded: potent inhibitory activity | CB2 functional activity (CB2 receptor [1]; LANCE cAMP assay): inverse agonists | cell viability versus vehicle control (RAW 264.7 cells [4]; 3 days, MTT): not significantly affected | cell viability (RAW 264.7 cells [4]; 3 days, MTT): only some effects on cell viability

CCN(CC)c1ccc(CN(C(=O)Cc2ccc(Cl)cc2)c2ccc(Cl)cc2)cc1 [Compound 52, N,2-bis(4-Chlorophenyl)-N-(4-(diethylamino)benzyl)acetamide]
Ki (CB1 receptor): > 20000 nM

CCN(CC)c1ccc(CN(c2ccc(C)cc2)S(=O)(=O)c2ccccc2)cc1 [Compound 54, N-(4-(Diethylamino)benzyl)-N-(p-tolyl)benzenesulfonamide]
CB2 functional activity (CB2 receptor [1]; LANCE cAMP assay): inverse agonists

CCN(CC)c1ccc(CN(c2ccc(C)cc2)S(=O)(=O)c2ccc(OC)cc2)cc1 [Compound 57, N-(4-(Diethylamino)benzyl)-4-methoxy-N-(p-tolyl)benzenesulfonamide]
inhibition rate of osteoclast formation (RAW 264.7 cells [2]; 0.1 µM): strongest inhibition activity | inhibition rate of osteoclast formation (RAW 264.7 cells [2]; 1 µM): good inhibition activity | inhibitory activity on RANKL-induced osteoclast formation (RAW 264.7 cells [2]): potent inhibitory activity; also recorded: inhibit RANKL-induced osteoclastogenesis in a dose-dependent manner | CB2 functional activity (CB2 receptor [1]; LANCE cAMP assay): inverse agonists | effect on cell viability (RAW 264.7 cells [4]; 5 µM, 3 days, MTT): only slight effect on cell viability | cell viability versus vehicle control (RAW 264.7 cells [4]; 3 days, MTT): not significantly affected | cell viability (RAW 264.7 cells [4]; 3 days, MTT): only some effects on cell viability | cytotoxic effects on RAW 264.7 (RAW 264.7 cells [4]; cell viability test, overall): very low cytotoxic effects
